{"source": "ChEMBL document CHEMBL5465560", "about": "“Selectivity Literature for EUbOPEN Chemogenomic Library” (2024)", "key": {"[1]": {"target": "Proto-oncogene tyrosine-protein kinase Src (Homo sapiens, UniProt P12931)", "sequence (P12931 2-536 limits assumed)": "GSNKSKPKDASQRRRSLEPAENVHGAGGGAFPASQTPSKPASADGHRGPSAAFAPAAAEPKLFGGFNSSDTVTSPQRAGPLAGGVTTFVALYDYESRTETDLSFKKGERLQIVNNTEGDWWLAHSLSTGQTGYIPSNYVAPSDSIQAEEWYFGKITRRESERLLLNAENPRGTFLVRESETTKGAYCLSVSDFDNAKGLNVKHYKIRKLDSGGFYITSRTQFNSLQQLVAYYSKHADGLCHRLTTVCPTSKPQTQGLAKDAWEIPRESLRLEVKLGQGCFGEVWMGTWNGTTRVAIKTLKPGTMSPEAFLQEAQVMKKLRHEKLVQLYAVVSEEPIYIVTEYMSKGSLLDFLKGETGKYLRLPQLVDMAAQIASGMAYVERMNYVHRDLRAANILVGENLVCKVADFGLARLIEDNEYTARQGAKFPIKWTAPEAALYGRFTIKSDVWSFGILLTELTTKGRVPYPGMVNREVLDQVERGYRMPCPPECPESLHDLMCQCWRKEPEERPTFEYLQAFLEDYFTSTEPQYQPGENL", "assay": "Selectivity interaction (KinaseProfiler screening (Millipore)) EUB0000601a SRC", "conditions": "at 3 µM"}, "[2]": {"target": "T1, Ribosomal protein S6 kinase alpha-1 (Homo sapiens, UniProt Q15418)", "T1 sequence (Q15418 whole entry)": "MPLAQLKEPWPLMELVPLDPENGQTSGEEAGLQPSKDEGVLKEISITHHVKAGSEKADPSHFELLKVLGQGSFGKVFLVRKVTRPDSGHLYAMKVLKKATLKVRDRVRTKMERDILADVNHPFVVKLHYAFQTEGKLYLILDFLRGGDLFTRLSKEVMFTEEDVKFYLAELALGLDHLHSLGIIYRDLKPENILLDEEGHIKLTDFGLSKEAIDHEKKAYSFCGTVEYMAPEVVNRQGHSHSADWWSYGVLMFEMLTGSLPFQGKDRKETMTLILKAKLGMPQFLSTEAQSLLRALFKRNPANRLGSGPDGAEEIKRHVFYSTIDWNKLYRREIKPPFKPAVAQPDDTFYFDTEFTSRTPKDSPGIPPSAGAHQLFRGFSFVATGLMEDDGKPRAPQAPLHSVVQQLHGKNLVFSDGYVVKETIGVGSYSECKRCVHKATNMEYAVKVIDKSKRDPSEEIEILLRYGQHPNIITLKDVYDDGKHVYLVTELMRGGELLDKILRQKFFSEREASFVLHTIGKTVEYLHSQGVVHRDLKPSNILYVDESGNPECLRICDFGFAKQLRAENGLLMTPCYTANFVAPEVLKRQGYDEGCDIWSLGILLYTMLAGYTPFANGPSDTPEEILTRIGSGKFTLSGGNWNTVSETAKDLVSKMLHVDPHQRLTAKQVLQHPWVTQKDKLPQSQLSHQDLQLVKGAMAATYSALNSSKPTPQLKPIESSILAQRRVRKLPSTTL", "assay": "Selectivity interaction (KinomeScan (DiscoverX)) EUB0000655a RPS6KA1", "conditions": "at 10 µM"}, "Insulin receptor": {"target": "Insulin receptor (Homo sapiens, UniProt P06213)", "sequence (P06213 28-758 limits assumed)": "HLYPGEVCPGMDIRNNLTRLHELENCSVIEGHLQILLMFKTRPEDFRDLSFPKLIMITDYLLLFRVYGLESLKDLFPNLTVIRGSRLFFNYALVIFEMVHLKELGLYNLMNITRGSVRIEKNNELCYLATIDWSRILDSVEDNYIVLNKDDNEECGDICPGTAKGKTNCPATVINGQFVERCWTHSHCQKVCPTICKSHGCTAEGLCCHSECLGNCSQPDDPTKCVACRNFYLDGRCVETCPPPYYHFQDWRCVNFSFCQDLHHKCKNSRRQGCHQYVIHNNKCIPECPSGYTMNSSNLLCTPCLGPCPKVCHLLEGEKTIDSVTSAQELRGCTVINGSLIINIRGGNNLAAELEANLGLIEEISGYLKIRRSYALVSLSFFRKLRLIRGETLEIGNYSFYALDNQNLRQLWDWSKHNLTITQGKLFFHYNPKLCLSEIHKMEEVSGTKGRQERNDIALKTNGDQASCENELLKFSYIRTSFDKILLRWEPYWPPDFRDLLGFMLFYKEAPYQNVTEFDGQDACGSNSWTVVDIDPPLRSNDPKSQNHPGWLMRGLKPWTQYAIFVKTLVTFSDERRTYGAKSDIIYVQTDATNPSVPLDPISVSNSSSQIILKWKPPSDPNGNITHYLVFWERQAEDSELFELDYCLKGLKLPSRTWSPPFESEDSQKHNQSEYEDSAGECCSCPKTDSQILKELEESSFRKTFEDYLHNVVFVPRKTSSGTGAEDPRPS", "sequence (P06213 763-1382 limits assumed)": "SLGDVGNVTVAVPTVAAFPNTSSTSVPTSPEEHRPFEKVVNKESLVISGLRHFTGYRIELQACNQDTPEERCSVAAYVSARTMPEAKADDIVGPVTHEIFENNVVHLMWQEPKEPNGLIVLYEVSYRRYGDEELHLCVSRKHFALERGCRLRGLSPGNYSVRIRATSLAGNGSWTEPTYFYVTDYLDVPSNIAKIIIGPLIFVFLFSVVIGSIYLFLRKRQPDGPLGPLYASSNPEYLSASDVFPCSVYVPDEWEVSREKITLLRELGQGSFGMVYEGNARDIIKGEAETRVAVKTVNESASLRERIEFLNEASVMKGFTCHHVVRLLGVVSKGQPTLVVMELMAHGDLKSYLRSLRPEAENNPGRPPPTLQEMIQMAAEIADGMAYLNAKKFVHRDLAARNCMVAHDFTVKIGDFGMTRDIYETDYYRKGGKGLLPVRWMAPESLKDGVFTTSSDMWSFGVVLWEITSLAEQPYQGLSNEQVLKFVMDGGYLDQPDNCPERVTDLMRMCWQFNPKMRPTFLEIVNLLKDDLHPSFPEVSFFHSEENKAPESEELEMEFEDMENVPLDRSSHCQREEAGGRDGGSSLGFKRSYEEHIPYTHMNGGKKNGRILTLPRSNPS", "assay": "Selectivity interaction (KinomeScan (DiscoverX)) EUB0001079a INSR", "conditions": "at 1 µM"}, "[3]": {"target": "Wee1-like protein kinase 2 (Homo sapiens) (UniProt P0C1S8)", "sequence (P0C1S8 whole entry, looked up)": "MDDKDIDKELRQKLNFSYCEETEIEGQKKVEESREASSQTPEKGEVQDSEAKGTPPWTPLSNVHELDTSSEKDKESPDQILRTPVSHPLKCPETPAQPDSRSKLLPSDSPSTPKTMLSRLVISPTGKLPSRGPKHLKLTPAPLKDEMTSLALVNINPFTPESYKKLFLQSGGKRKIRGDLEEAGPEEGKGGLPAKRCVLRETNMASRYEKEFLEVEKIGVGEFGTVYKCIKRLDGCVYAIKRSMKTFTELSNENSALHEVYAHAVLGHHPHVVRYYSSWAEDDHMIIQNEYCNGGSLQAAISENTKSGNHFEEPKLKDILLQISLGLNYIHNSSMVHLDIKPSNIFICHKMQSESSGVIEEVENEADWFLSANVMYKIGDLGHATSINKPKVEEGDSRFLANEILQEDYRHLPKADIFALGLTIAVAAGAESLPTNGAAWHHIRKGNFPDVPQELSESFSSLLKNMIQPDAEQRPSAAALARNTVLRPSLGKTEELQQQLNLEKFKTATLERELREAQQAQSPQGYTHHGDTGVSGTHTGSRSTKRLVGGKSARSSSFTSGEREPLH", "assay": "Selectivity interaction (KinomeScan (DiscoverX)) EUB0001079a WEE2", "conditions": "at 1 µM"}, "[4]": {"target": "Vascular endothelial growth factor receptor 2 (Homo sapiens, UniProt P35968)", "assay": "Selectivity interaction (KinomeScan (DiscoverX)) EUB0000618a KDR", "conditions": "at 10 µM"}, "[5]": {"target": "T2, Homeodomain-interacting protein kinase 4 (Homo sapiens) (UniProt Q8NE63)", "T2 sequence (whole entry)": "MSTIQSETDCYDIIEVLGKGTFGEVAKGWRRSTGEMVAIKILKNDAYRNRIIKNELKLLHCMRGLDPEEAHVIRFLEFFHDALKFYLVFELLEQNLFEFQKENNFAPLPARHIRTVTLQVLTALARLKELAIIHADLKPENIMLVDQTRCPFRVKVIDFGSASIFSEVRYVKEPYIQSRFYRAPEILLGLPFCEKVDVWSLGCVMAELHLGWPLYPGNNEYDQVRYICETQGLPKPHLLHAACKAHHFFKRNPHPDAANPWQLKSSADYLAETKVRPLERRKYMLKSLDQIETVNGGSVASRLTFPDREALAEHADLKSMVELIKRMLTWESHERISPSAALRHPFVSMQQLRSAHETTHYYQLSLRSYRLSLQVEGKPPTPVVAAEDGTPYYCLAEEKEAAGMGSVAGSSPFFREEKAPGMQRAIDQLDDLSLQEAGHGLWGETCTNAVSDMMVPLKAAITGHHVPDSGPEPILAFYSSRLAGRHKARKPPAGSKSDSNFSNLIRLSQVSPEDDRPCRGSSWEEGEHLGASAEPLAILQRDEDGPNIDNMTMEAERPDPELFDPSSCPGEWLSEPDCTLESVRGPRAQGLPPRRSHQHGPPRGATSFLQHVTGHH", "assay": "Selectivity interaction (KinomeScan (DiscoverX)) EUB0000618a HIPK4", "conditions": "at 10 µM"}, "[6]": {"target": "Serine/threonine-protein kinase 26 (Homo sapiens, UniProt Q9P289)", "sequence (Q9P289 2-416 limits assumed)": "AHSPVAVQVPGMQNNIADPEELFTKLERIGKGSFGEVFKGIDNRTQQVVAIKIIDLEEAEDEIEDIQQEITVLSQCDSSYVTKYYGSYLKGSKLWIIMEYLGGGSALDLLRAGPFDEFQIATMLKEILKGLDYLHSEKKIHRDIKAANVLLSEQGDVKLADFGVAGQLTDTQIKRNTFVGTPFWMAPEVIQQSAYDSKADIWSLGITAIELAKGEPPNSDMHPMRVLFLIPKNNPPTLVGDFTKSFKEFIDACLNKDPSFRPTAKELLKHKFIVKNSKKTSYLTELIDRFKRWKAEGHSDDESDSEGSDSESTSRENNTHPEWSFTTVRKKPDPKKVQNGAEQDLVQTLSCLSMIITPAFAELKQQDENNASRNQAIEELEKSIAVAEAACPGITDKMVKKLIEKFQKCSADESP", "conditions": "PBMC, at 1 µM"}, "[7]": {"target": "Serine/threonine-protein kinase PAK 1 (Homo sapiens) (UniProt Q13153)", "sequence (Q13153 whole entry)": "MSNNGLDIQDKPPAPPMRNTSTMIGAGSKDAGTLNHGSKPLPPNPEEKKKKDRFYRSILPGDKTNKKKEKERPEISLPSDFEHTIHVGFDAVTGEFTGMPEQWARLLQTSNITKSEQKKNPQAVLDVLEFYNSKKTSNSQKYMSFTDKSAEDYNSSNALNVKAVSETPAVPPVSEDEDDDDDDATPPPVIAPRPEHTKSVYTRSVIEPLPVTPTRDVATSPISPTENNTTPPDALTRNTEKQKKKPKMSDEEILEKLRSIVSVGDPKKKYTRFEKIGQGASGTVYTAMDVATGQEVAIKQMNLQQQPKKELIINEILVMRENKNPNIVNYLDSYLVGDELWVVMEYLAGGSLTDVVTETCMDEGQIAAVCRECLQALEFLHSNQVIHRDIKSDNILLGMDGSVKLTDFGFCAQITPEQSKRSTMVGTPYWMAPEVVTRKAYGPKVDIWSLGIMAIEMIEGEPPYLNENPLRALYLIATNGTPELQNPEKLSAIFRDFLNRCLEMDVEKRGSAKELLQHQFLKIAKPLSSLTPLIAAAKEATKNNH", "assay": "Selectivity interaction (Kinase panel (DSF assay)) EUB0001558a PAK1"}, "[8]": {"target": "T1, Ribosomal protein S6 kinase alpha-1", "assay": "Selectivity interaction (KinomeScan (DiscoverX)) EUB0000045b RPS6KA1"}, "[9]": {"target": "T3, Serine/threonine-protein kinase TBK1 (Homo sapiens) (UniProt Q9UHD2)", "T3 sequence (whole entry)": "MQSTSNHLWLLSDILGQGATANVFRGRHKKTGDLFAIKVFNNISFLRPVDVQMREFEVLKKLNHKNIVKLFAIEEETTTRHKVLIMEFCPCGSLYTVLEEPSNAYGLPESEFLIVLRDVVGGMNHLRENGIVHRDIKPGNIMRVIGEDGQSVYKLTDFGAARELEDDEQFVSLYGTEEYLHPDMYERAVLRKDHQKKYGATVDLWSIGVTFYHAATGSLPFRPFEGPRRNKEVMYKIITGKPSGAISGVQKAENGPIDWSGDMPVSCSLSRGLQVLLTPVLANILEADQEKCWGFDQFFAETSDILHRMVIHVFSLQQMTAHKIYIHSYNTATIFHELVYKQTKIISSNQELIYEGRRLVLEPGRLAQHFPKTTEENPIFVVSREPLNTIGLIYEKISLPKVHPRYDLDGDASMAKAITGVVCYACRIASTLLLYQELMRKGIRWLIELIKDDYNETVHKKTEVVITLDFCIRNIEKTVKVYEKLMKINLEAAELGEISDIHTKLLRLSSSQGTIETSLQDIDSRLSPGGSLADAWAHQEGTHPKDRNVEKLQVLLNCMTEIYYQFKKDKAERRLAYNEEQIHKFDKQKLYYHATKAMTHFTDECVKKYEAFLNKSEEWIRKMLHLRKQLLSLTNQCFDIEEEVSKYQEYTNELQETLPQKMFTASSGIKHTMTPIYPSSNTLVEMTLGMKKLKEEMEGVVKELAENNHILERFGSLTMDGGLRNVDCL", "assay": "Selectivity interaction (ActivX KiNativ screen (kinase selectivity in THP-1 cell lysates)) EUB0000639a TBK1", "assay_type": "subcellular", "conditions": "lysate, at 0.01 µM"}, "[10]": {"target": "T4, Dual specificity mitogen-activated protein kinase kinase 3 (Homo sapiens) (UniProt P46734)", "T4 sequence (whole entry)": "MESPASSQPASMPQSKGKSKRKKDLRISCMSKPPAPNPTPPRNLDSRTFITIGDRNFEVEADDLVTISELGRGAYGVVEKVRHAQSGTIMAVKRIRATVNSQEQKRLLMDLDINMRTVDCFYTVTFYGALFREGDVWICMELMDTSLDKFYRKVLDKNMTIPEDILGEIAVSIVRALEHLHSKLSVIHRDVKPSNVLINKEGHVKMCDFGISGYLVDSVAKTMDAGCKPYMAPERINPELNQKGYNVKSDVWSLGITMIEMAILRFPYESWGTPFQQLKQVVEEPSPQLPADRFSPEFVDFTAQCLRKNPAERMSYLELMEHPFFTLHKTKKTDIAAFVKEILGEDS", "assay": "Selectivity interaction (KinomeScan (DiscoverX)) EUB0000695a MAP2K3", "conditions": "at 100 nM"}}}
{"smiles": "CCc1cc(Nc2nccc(-c3c(-c4ccc(OC)c(C(=O)Nc5c(F)cccc5F)c4)nc4ccccn34)n2)c(OC)cc1N1CCC(N2CCN(S(C)(=O)=O)CC2)CC1", "values": [{"measurement": "% of inhibition", "setting": "[1]", "result": 43, "unit": "%"}]}
{"smiles": "CN(C)CCOc1ccc(-c2nc(-c3ccncc3)c(-c3ccc4c(c3)CC/C4=N\\O)[nH]2)cc1", "values": [{"measurement": "% of control", "setting": "[2]", "result": 81, "unit": "%"}]}
{"smiles": "Nc1cnc(N2CCc3cc(S(=O)(=O)Nc4c(F)cc(Cl)cc4F)cc(N4CCCC4=O)c32)nc1", "note": "[TP-020n]", "values": [{"measurement": "% of control", "setting": "Insulin receptor", "result": 89, "unit": "%"}, {"measurement": "% of control", "setting": "[3]", "result": 93, "unit": "%"}]}
{"smiles": "O[C@H]1CC[C@H](Nc2ncc3nc(Nc4c(F)cc(F)cc4F)n([C@H]4CCOC4)c3n2)CC1", "values": [{"measurement": "% of control", "setting": "[4]", "result": 100, "unit": "%"}, {"measurement": "% of control", "setting": "[5]", "result": 98, "unit": "%"}]}
{"smiles": "N#Cc1cccc(-c2c[nH]c3ncnc(N4CCOCC4)c23)c1", "values": [{"measurement": "% of inhibition", "setting": "[6]", "result": 61, "unit": "%"}]}
{"smiles": "CC(C)(O)[C@H](F)CN1Cc2cc(NC(=O)c3cnn4cccnc34)c(N3CCOCC3)cc2C1=O", "values": [{"measurement": "dTM", "setting": "[7]", "result": -0.1, "unit": "K"}]}
{"smiles": "C=CC(=O)Nc1cc(-n2c(=O)ccc3cnc4ccc(-c5ccc(NS(C)(=O)=O)cc5)cc4c32)ccc1C", "values": [{"measurement": "% of control", "setting": "[8]; at 1 µM", "result": 76, "unit": "%"}, {"measurement": "% of control", "setting": "[8]; at 10 µM", "result": 67, "unit": "%"}]}
{"smiles": "CC[C@@H]1[C@H](F)C(=O)N[C@@H]1COc1nccc2cc(C(N)=O)c(OC)cc12", "note": "[ZIMLOVISERTIB]", "values": [{"measurement": "% of inhibition", "setting": "[9]", "result": 1.3, "unit": "%"}]}
{"smiles": "Cc1cc(F)c(C(=O)Nc2cccc(-c3nncn3C(C)C)n2)cc1-n1cnc(C2CC2)c1", "values": [{"measurement": "% of control", "setting": "[10]", "result": 89, "unit": "%"}]}
